The test system of one assay is HCT116-MTAP-KO. In words: Cell killing in HCT116 isogenic pair (Cell Titer-Glo viability), MTAP knock-out cells. Type of assay: cell-based, human. Particulars: 6 days incubation, 0-10 μM, * = more than 50% viability inhibition at tested concentration without a full curve. In short, it runs like this:
(§1)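 HCT116 MTAP-knockout or mock-knockout (MTAP wildtype) cells in RPMI 1640 with 10% FBS were seeded overnight, then exposed to test compound at 0–10 μM final for 6 days at 37° C. Viability was measured by CellTiter-Glo luminescence and IC50 was fitted.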
Background: Cellular ATP, detected with luciferase, serves as a proxy for viable cell number.

A further assay has as its system HCT116-mock-RNA-KO. In words: Cell killing in HCT116 isogenic pair (Cell Titer-Glo viability), mock knock-out cells with MTAP wildtype genotype. It is filed as cell-based, human. The conditions noted are these: 6 days incubation, 0-10 μM. In short, it runs like this: as §1

In the case of `CCN(C(=O)c1cc2nc(N)c3c(c2[nH]1)COC3)[C@@H](C)c1ccc(C(F)(F)F)cn1` [Example 114, (S)-5-amino-N-ethyl-N-(1-(5-(trifluoromethyl)pyridin-2-yl)ethyl)-6,8-dihydro-1H-furo[3,4-d]pyrrolo[3,2-b]pyridine-2-carboxamide], the IC50 (in general, the midpoint of a concentration-inhibition curve) was 3630 nM with HCT116-MTAP-KO (Homo sapiens, HCT-116, 144 h) and above 10000 nM in the assay with HCT116-mock-RNA-KO (Homo sapiens, HCT-116, 144 h).

In the case of `CCN(C(=O)c1cc2nc(N)c3c(c2[nH]1)COC3)[C@H](C)c1ccc(C(F)(F)F)cn1` [Example 115, (R)-5-amino-N-ethyl-N-(1-(5-(trifluoromethyl)pyridin-2-yl)ethyl)-6,8-dihydro-1H-furo[3,4-d]pyrrolo[3,2-b]pyridine-2-carboxamide], the IC50 worked out at 43 nM in the assay on HCT116-MTAP-KO (Homo sapiens, HCT-116, 144 h) and 6820 nM in the assay with HCT116-mock-RNA-KO (Homo sapiens, HCT-116, 144 h).

On to `CCC(CC)N(Cc1c(F)cc(C(F)(F)F)cc1F)C(=O)c1cc2nc(N)c3c(c2[nH]1)CO[C@@H]3C` [Example 116, (R)-5-amino-N-(2,6-difluoro-4-(trifluoromethyl)benzyl)-6-methyl-N-(pentan-3-yl)-6,8-dihydro-1H-furo[3,4-d]pyrrolo[3,2-b]pyridine-2-carboxamide], for which the 50% inhibitory concentration (IC50) in the assay on HCT116-MTAP-KO (Homo sapiens, HCT-116, 144 h) came out at 6.9 nM; in the assay with HCT116-mock-RNA-KO (Homo sapiens, HCT-116, 144 h), 269 nM.

In the case of `CCC(CC)N(Cc1ncc(N2CCOCC2)cc1F)C(=O)c1cc2nc(N)c3c(c2[nH]1)COC3` [Example 117, 5-amino-N-((3-fluoro-5-morpholinopyridin-2-yl)methyl)-N-(pentan-3-yl)-6,8-dihydro-1H-furo[3,4-d]pyrrolo[3,2-b]pyridine-2-carboxamide], the IC50 in the assay on HCT116-MTAP-KO (Homo sapiens, HCT-116, 144 h) was found to be 6.5 nM; in the assay on HCT116-mock-RNA-KO (Homo sapiens, HCT-116, 144 h), 609 nM.

On to `C[C@@H](c1ncc(C2CC2)cc1F)N(C)C(=O)c1cc2nc(N)c3c(c2[nH]1)COC3` [Example 118, (S)-5-amino-N-(1-(5-cyclopropyl-3-fluoropyridin-2-yl)ethyl)-N-methyl-6,8-dihydro-1H-furo[3,4-d]pyrrolo[3,2-b]pyridine-2-carboxamide], for which the IC50 with HCT116-MTAP-KO (Homo sapiens, HCT-116, 144 h) is 2250 nM; with HCT116-mock-RNA-KO (Homo sapiens, HCT-116, 144 h), above 10000 nM.

`C[C@H](c1ncc(C2CC2)cc1F)N(C)C(=O)c1cc2nc(N)c3c(c2[nH]1)COC3` [Example 119, (R)-5-amino-N-(1-(5-cyclopropyl-3-fluoropyridin-2-yl)ethyl)-N-methyl-6,8-dihydro-1H-furo[3,4-d]pyrrolo[3,2-b]pyridine-2-carboxamide]: the concentration for half-maximal inhibition (IC50) with HCT116-MTAP-KO (Homo sapiens, HCT-116, 144 h) stood at 9.8 nM; in the assay with HCT116-mock-RNA-KO (Homo sapiens, HCT-116, 144 h), 1590 nM.

Consider `CCN(C(=O)c1cc2nc(N)c3c(c2[nH]1)COC3)[C@H](C)c1ncc(C2CC2)cc1F` [Example 120, (R)-5-amino-N-(1-(5-cyclopropyl-3-fluoropyridin-2-yl)ethyl)-N-ethyl-6,8-dihydro-1H-furo[3,4-d]pyrrolo[3,2-b]pyridine-2-carboxamide], for which the IC50 with HCT116-MTAP-KO (Homo sapiens, HCT-116, 144 h) amounted to 5.6 nM; in the assay with HCT116-mock-RNA-KO (Homo sapiens, HCT-116, 144 h) it was 992 nM.

Turning to `CCN(C(=O)c1cc2nc(N)c3c(c2[nH]1)COC3)[C@@H](C)c1ncc(C2CC2)cc1F` [Example 121, (S)-5-amino-N-(1-(5-cyclopropyl-3-fluoropyridin-2-yl)ethyl)-N-ethyl-6,8-dihydro-1H-furo[3,4-d]pyrrolo[3,2-b]pyridine-2-carboxamide], the IC50 is 586 nM in the assay with HCT116-MTAP-KO (Homo sapiens, HCT-116, 144 h) and above 10000 nM in the assay on HCT116-mock-RNA-KO (Homo sapiens, HCT-116, 144 h).

As to `C[C@@H](c1c(F)cc(Br)cc1F)N(C)C(=O)c1cc2nc(N)c3c(c2[nH]1)COC3` [Example 122, (S)-5-amino-N-(1-(4-bromo-2,6-difluorophenyl)ethyl)-N-methyl-6,8-dihydro-1H-furo[3,4-d]pyrrolo[3,2-b]pyridine-2-carboxamide], the half-maximal inhibitory concentration (IC50) is 2220 nM with HCT116-MTAP-KO (Homo sapiens, HCT-116, 144 h) and 5780 nM in the assay with HCT116-mock-RNA-KO (Homo sapiens, HCT-116, 144 h).

Consider `C[C@H](c1c(F)cc(Br)cc1F)N(C)C(=O)c1cc2nc(N)c3c(c2[nH]1)COC3` [Example 123, (R)-5-amino-N-(1-(4-bromo-2,6-difluorophenyl)ethyl)-N-methyl-6,8-dihydro-1H-furo[3,4-d]pyrrolo[3,2-b]pyridine-2-carboxamide], for which the half-maximal inhibitory concentration (IC50) is 46 nM in the assay with HCT116-MTAP-KO (Homo sapiens, HCT-116, 144 h) and 4910 nM in the assay on HCT116-mock-RNA-KO (Homo sapiens, HCT-116, 144 h).

As to `CCN(C(=O)c1cc2nc(N)c3c(c2[nH]1)CO[C@@H]3C)[C@H](C)c1ccc(Br)cc1F` [Example 124, (R)-5-amino-N—((R)-1-(4-bromo-2-fluorophenyl)ethyl)-N-ethyl-6-methyl-6,8-dihydro-1H-furo[3,4-d]pyrrolo[3,2-b]pyridine-2-carboxamide], the 50% inhibitory concentration (IC50) in the assay with HCT116-MTAP-KO (Homo sapiens, HCT-116, 144 h) was found to be 22 nM; in the assay on HCT116-mock-RNA-KO (Homo sapiens, HCT-116, 144 h), 2470 nM.

In the case of `CCN(C(=O)c1cc2nc(N)c3c(c2[nH]1)CO[C@@H]3C)[C@@H](C)c1ccc(Br)cc1F` [Example 125], the IC50 came out at 365 nM in the assay on HCT116-MTAP-KO and 7460 nM in the assay on HCT116-mock-RNA-KO.

As to `CCN(C(=O)c1cc2nc(N)c3c(c2[nH]1)CO[C@@H]3C)[C@H](C)c1ccc(C(F)(F)F)cc1F` [Example 126, (R)-5-amino-N-ethyl-N—((R)-1-(2-fluoro-4-(trifluoromethyl)phenyl)ethyl)-6-methyl-6,8-dihydro-1H-furo[3,4-d]pyrrolo[3,2-b]pyridine-2-carboxamide], the IC50 is 11 nM with HCT116-MTAP-KO (Homo sapiens, HCT-116, 144 h) and 1720 nM in the assay with HCT116-mock-RNA-KO (Homo sapiens, HCT-116, 144 h).

Take `CCN(C(=O)c1cc2nc(N)c3c(c2[nH]1)CO[C@@H]3C)[C@@H](C)c1ccc(C(F)(F)F)cc1F` [Example 127, (R)-5-amino-N-ethyl-N—((S)-1-(2-fluoro-4-(trifluoromethyl)phenyl)ethyl)-6-methyl-6,8-dihydro-1H-furo[3,4-d]pyrrolo[3,2-b]pyridine-2-carboxamide]: the IC50 in the assay on HCT116-MTAP-KO (Homo sapiens, HCT-116, 144 h) came out at 236 nM; in the assay on HCT116-mock-RNA-KO (Homo sapiens, HCT-116, 144 h), 5900 nM.

With `CCN(C(=O)c1cc2nc(N)c3c(c2[nH]1)CO[C@@H]3C)[C@H](C)c1ncc(Br)cc1F` [Example 128, (R)-5-amino-N—((R)-1-(5-bromo-3-fluoropyridin-2-yl)ethyl)-N-ethyl-6-methyl-6,8-dihydro-1H-furo[3,4-d]pyrrolo[3,2-b]pyridine-2-carboxamide], the half-inhibitory concentration (IC50) came out at 6 nM in the assay with HCT116-MTAP-KO (Homo sapiens, HCT-116, 144 h) and 1050 nM with HCT116-mock-RNA-KO (Homo sapiens, HCT-116, 144 h).

Turning to `CCN(C(=O)c1cc2nc(N)c3c(c2[nH]1)CO[C@@H]3C)[C@@H](C)c1ncc(Br)cc1F` [Example 129, (R)-5-amino-N—((S)-1-(5-bromo-3-fluoropyridin-2-yl)ethyl)-N-ethyl-6-methyl-6,8-dihydro-1H-furo[3,4-d]pyrrolo[3,2-b]pyridine-2-carboxamide], the IC50 in the assay on HCT116-MTAP-KO (Homo sapiens, HCT-116, 144 h) is 1180 nM; in the assay with HCT116-mock-RNA-KO (Homo sapiens, HCT-116, 144 h) it was above 10000 nM.

Consider `CCN(C(=O)c1cc2nc(N)c3c(c2[nH]1)CO[C@@H]3C)[C@H](C)c1ncc(C(F)(F)F)cc1F` [Example 130, (R)-5-amino-N-ethyl-N—((R)-1-(3-fluoro-5-(trifluoromethyl)pyridin-2-yl)ethyl)-6-methyl-6,8-dihydro-1H-furo[3,4-d]pyrrolo[3,2-b]pyridine-2-carboxamide], for which the concentration for half-maximal inhibition (IC50) with HCT116-MTAP-KO (Homo sapiens, HCT-116, 144 h) was 8.5 nM; in the assay with HCT116-mock-RNA-KO (Homo sapiens, HCT-116, 144 h), 1090 nM.

Turning to `CCN(C(=O)c1cc2nc(N)c3c(c2[nH]1)CO[C@@H]3C)[C@@H](C)c1ncc(C(F)(F)F)cc1F` [Example 131, (R)-5-amino-N-ethyl-N—((S)-1-(3-fluoro-5-(trifluoromethyl)pyridin-2-yl)ethyl)-6-methyl-6,8-dihydro-1H-furo[3,4-d]pyrrolo[3,2-b]pyridine-2-carboxamide], the IC50 with HCT116-MTAP-KO (Homo sapiens, HCT-116, 144 h) was 1830 nM; in the assay on HCT116-mock-RNA-KO (Homo sapiens, HCT-116, 144 h), above 10000 nM.

Consider `CCN(C(=O)c1cc2nc(N)c3c(c2[nH]1)COC3)[C@H](C)c1ncc(N2CCOCC2)cc1F` [Example 132, 5-amino-N-ethyl-N-(1-(3-fluoro-5-morpholinopyridin-2-yl)ethyl)-6,8-dihydro-1H-furo[3,4-d]pyrrolo[3,2-b]pyridine-2-carboxamide], for which the IC50 in the assay with HCT116-MTAP-KO (Homo sapiens, HCT-116, 144 h) is 45 nM; with HCT116-mock-RNA-KO (Homo sapiens, HCT-116, 144 h) it was above 10000 nM.

For `CCN(C(=O)c1cc2nc(N)c3c(c2[nH]1)COC3)[C@H](C)c1ccc(Br)cc1F` [Example 133, (R)-5-amino-N-(1-(4-bromo-2-fluorophenyl)ethyl)-N-ethyl-6,8-dihydro-1H-furo[3,4-d]pyrrolo[3,2-b]pyridine-2-carboxamide], the IC50 in the assay with HCT116-MTAP-KO (Homo sapiens, HCT-116, 144 h) worked out at 13 nM; with HCT116-mock-RNA-KO (Homo sapiens, HCT-116, 144 h) it was 1340 nM.

As for `CCN(C(=O)c1cc2nc(N)c3c(c2[nH]1)COC3)[C@@H](C)c1ccc(Br)cc1F` [Example 134, (S)-5-amino-N-(1-(4-bromo-2-fluorophenyl)ethyl)-N-ethyl-6,8-dihydro-1H-furo[3,4-d]pyrrolo[3,2-b]pyridine-2-carboxamide], the IC50 was found to be 336 nM in the assay with HCT116-MTAP-KO (Homo sapiens, HCT-116, 144 h) and 2880 nM in the assay on HCT116-mock-RNA-KO (Homo sapiens, HCT-116, 144 h).

With `CCN(C(=O)c1cc2nc(N)c3c(c2[nH]1)COC3)[C@H](C)c1ccc(C(F)(F)F)cc1F` [Example 135, (R)-5-amino-N-ethyl-N-(1-(2-fluoro-4-(trifluoromethyl)phenyl)ethyl)-6,8-dihydro-1H-furo[3,4-d]pyrrolo[3,2-b]pyridine-2-carboxamide], the IC50 was 26 nM with HCT116-MTAP-KO (Homo sapiens, HCT-116, 144 h) and 2130 nM in the assay with HCT116-mock-RNA-KO (Homo sapiens, HCT-116, 144 h).

Regarding `CCN(C(=O)c1cc2nc(N)c3c(c2[nH]1)COC3)[C@@H](C)c1ccc(C(F)(F)F)cc1F` [Example 136, (S)-5-amino-N-ethyl-N-(1-(2-fluoro-4-(trifluoromethyl)phenyl)ethyl)-6,8-dihydro-1H-furo[3,4-d]pyrrolo[3,2-b]pyridine-2-carboxamide], the IC50 in the assay on HCT116-MTAP-KO (Homo sapiens, HCT-116, 144 h) was 245 nM; in the assay on HCT116-mock-RNA-KO (Homo sapiens, HCT-116, 144 h) it was 3520 nM.

With `C[C@H](c1ccc(Br)cc1F)N(C)C(=O)c1cc2nc(N)c3c(c2[nH]1)COC3` [Example 137, (R)-5-amino-N-(1-(4-bromo-2-fluorophenyl)ethyl)-N-methyl-6,8-dihydro-1H-furo[3,4-d]pyrrolo[3,2-b]pyridine-2-carboxamide], the half-maximal inhibitory concentration (IC50) in the assay on HCT116-MTAP-KO (Homo sapiens, HCT-116, 144 h) was found to be 44 nM; in the assay on HCT116-mock-RNA-KO (Homo sapiens, HCT-116, 144 h), 3020 nM.

Take `C[C@@H](c1ccc(Br)cc1F)N(C)C(=O)c1cc2nc(N)c3c(c2[nH]1)COC3` [Example 138, (S)-5-amino-N-(1-(4-bromo-2-fluorophenyl)ethyl)-N-methyl-6,8-dihydro-1H-furo[3,4-d]pyrrolo[3,2-b]pyridine-2-carboxamide]: the IC50 was 913 nM in the assay on HCT116-MTAP-KO (Homo sapiens, HCT-116, 144 h) and 3240 nM in the assay on HCT116-mock-RNA-KO (Homo sapiens, HCT-116, 144 h).

(Values after patent US20240368177A1, “5-AMINO-6,8-DIHYDRO-1H-FURO[3,4-d]PYRROLO[3,2-b]PYRIDINE-2-CARBOXAMIDE DERIVATIVES AS MTA-COOPERATIVE INHIBITORS OF PRMT5” (BeiGene Switzerland GmbH, priority 2023, published 2024).)
